Reference: ChEMBL document CHEMBL1201862, “PubChem BioAssay data set” (2004)
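Protocol summary: plate cells (96-well), add compound at 5 concentrations, incubate 48 h, interpolate endpoints linearly. GI50 = concentration required for 50% inhibition of growth.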 Calls of active or inactive are those of the source. No stated cut-off is given here; in the data, active = GI50 up to about 1.1 µM and inactive = higher.

Experiments:
Experiment in all cases: NCI tumour cell line growth inhibition, 48 h
IGROV-1 = tested on: IGROV-1
CAKI-1 = tested on: CAKI-1
SN12C = tested on: SN12C
SW-620 = tested on: SW-620
U-251 = tested on: U-251
SF-268 = tested on: SF-268
EKVX = tested on: EKVX
LOX IMVI = tested on: LOX IMVI
HL-60 = tested on: HL-60
K562 = tested on: K562
OVCAR-3 = tested on: OVCAR-3
OVCAR-5 = tested on: OVCAR-5
MCF7 = tested on: MCF7
OVCAR-8 = tested on: OVCAR-8
HCT-116 = tested on: HCT-116
A549 = tested on: A549
Hs-578T = tested on: Hs-578T
BT-549 = tested on: BT-549
RXF 393 = tested on: RXF 393
HOP-92 = tested on: HOP-92
786-0 = tested on: 786-0
SF-295 = tested on: SF-295
Malme-3M = tested on: Malme-3M
SNB-19 = tested on: SNB-19
PC-3 = tested on: PC-3
HCT-15 = tested on: HCT-15
KM12 = tested on: KM12
MDA-MB-231 = tested on: MDA-MB-231
CCRF-CEM = tested on: CCRF-CEM
SK-MEL-28 = tested on: SK-MEL-28
DU-145 = tested on: DU-145
UACC-62 = tested on: UACC-62
NCI-H460 = tested on: NCI-H460
SK-MEL-2 = tested on: SK-MEL-2
NCI-H522 = tested on: NCI-H522
UO-31 = tested on: UO-31
SK-OV-3 = tested on: SK-OV-3
A498 = tested on: A498
NCI-H23 = tested on: NCI-H23
TK-10 = tested on: TK-10
HCC 2998 = tested on: HCC 2998
SNB-75 = tested on: SNB-75
RPMI-8226 = tested on: RPMI-8226
SF-539 = tested on: SF-539
NCI/ADR-RES = tested on: NCI/ADR-RES
ACHN = tested on: ACHN
SK-MEL-5 = tested on: SK-MEL-5
UACC-257 = tested on: UACC-257
HOP-62 = tested on: HOP-62
T47D = tested on: T47D
MOLT-4 = tested on: MOLT-4
MDA-MB-435 = tested on: MDA-MB-435
NCI-H226 = tested on: NCI-H226
M14 = tested on: M14
HT-29 = tested on: HT-29
COLO 205 = tested on: COLO 205
OVCAR-4 = tested on: OVCAR-4
MDA-N = tested on: MDA-N

SMILES: O=S(=O)(N1CCCCN(S(=O)(=O)C(F)(F)F)CCCN(S(=O)(=O)C(F)(F)F)CCCCN(S(=O)(=O)C(F)(F)F)CCCN(S(=O)(=O)C(F)(F)F)CCCCN(S(=O)(=O)C(F)(F)F)CCCN(S(=O)(=O)C(F)(F)F)CCCCN(S(=O)(=O)C(F)(F)F)CCC1)C(F)(F)F
- GI50 (IGROV-1): > 31.6 µM (inactive)
- GI50 (CAKI-1): > 31.6 µM (inactive)
- GI50 (SN12C): > 31.6 µM (inactive)
- GI50 (SW-620): > 31.6 µM (inactive)
- GI50 (U-251): > 100 µM (inactive)
- GI50 (SF-268): > 31.6 µM (inactive)
- GI50 (EKVX): > 31.6 µM (inactive)
- GI50 (LOX IMVI): > 31.6 µM (inactive)
- GI50 (HL-60): > 31.6 µM (inactive)
- GI50 (K562): > 31.6 µM (inactive)
- GI50 (OVCAR-3): > 31.6 µM (inactive)
- GI50 (OVCAR-5): > 100 µM (inactive)
- GI50 (MCF7): > 10 µM (inactive)
- GI50 (OVCAR-8): > 31.6 µM (inactive)
- GI50 (HCT-116): > 31.6 µM (inactive)
- GI50 (A549): > 31.6 µM (inactive)
- GI50 (Hs-578T): > 31.6 µM (inactive)
- GI50 (BT-549): > 31.6 µM (inactive)
- GI50 (RXF 393): > 31.6 µM (inactive)
- GI50 (HOP-92): 11.1 µM (inactive)
- GI50 (786-0): > 100 µM (inactive)
- GI50 (SF-295): > 31.6 µM (inactive)
- GI50 (Malme-3M): > 31.6 µM (inactive)
- GI50 (SNB-19): > 31.6 µM (inactive)
- GI50 (PC-3): > 31.6 µM (inactive)
- GI50 (HCT-15): > 31.6 µM
- GI50 (KM12): > 31.6 µM (inactive)
- GI50 (MDA-MB-231): > 31.6 µM (inactive)
- GI50 (CCRF-CEM): > 31.6 µM (inactive)
- GI50 (SK-MEL-28): > 31.6 µM (inactive)
- GI50 (DU-145): > 31.6 µM (inactive)
- GI50 (UACC-62): > 31.6 µM (inactive)
- GI50 (NCI-H460): > 31.6 µM (inactive)
- GI50 (SK-MEL-2): > 100 µM (inactive)
- GI50 (NCI-H522): > 31.6 µM (inactive)
- GI50 (UO-31): > 31.6 µM (inactive)
- GI50 (SK-OV-3): > 31.6 µM (inactive)
- GI50 (A498): > 31.6 µM (inactive)
- GI50 (NCI-H23): > 31.6 µM (inactive)
- GI50 (TK-10): > 31.6 µM (inactive)
- GI50 (HCC 2998): > 31.6 µM (inactive)
- GI50 (SNB-75): > 31.6 µM (inactive)
- GI50 (RPMI-8226): 78.7 µM (inactive)
- GI50 (SF-539): > 31.6 µM (inactive)
- GI50 (NCI/ADR-RES): > 31.6 µM (inactive)
- GI50 (ACHN): > 31.6 µM (inactive)
- GI50 (SK-MEL-5): > 31.6 µM (inactive)
- GI50 (UACC-257): > 31.6 µM (inactive)
- GI50 (HOP-62): > 31.6 µM (inactive)
- GI50 (T47D): > 31.6 µM (inactive)
- GI50 (MOLT-4): > 31.6 µM (inactive)
- GI50 (MDA-MB-435): > 31.6 µM (inactive)
- GI50 (NCI-H226): > 31.6 µM (inactive)
- GI50 (M14): > 31.6 µM (inactive)
- GI50 (HT-29): > 31.6 µM (inactive)
- GI50 (COLO 205): > 100 µM (inactive)
- GI50 (OVCAR-4): > 100 µM (inactive)
- GI50 (MDA-N): > 31.6 µM (inactive)

SMILES: Oc1ccccc1C1=NOC(c2ccc(C(F)(F)F)cc2)C1 (configuration not stated)
- GI50 (IGROV-1): 0.527 µM (active)
- GI50 (CAKI-1): > 50 µM (inactive)
- GI50 (SN12C): > 50 µM (inactive)
- GI50 (SW-620): > 50 µM (inactive)
- GI50 (U-251): > 50 µM (inactive)
- GI50 (SF-268): > 50 µM (inactive)
- GI50 (EKVX): > 50 µM (inactive)
- GI50 (LOX IMVI): > 50 µM (inactive)
- GI50 (HL-60): > 50 µM (inactive)
- GI50 (K562): > 50 µM (inactive)
- GI50 (OVCAR-3): > 50 µM (inactive)
- GI50 (OVCAR-5): > 50 µM (inactive)
- GI50 (MCF7): 0.665 µM (active)
- GI50 (OVCAR-8): > 50 µM (inactive)
- GI50 (HCT-116): > 50 µM (inactive)
- GI50 (A549): > 50 µM (inactive)
- GI50 (Hs-578T): > 50 µM (inactive)
- GI50 (BT-549): > 50 µM (inactive)
- GI50 (RXF 393): > 50 µM (inactive)
- GI50 (786-0): > 50 µM (inactive)
- GI50 (SF-295): > 50 µM (inactive)
- GI50 (Malme-3M): > 50 µM (inactive)
- GI50 (SNB-19): > 50 µM (inactive)
- GI50 (PC-3): > 50 µM (inactive)
- GI50 (KM12): > 50 µM (inactive)
- GI50 (MDA-MB-231): > 41.6 µM (inactive)
- GI50 (CCRF-CEM): > 50 µM (inactive)
- GI50 (SK-MEL-28): > 50 µM (inactive)
- GI50 (DU-145): > 50 µM (inactive)
- GI50 (UACC-62): > 50 µM (inactive)
- GI50 (NCI-H460): > 50 µM (inactive)
- GI50 (SK-MEL-2): > 46.1 µM (inactive)
- GI50 (NCI-H522): > 50 µM (inactive)
- GI50 (SK-OV-3): > 50 µM (inactive)
- GI50 (A498): > 50 µM (inactive)
- GI50 (NCI-H23): > 50 µM (inactive)
- GI50 (HCC 2998): > 50 µM (inactive)
- GI50 (SNB-75): > 50 µM (inactive)
- GI50 (RPMI-8226): > 50 µM (inactive)
- GI50 (SF-539): > 50 µM (inactive)
- GI50 (NCI/ADR-RES): > 50 µM (inactive)
- GI50 (ACHN): > 50 µM (inactive)
- GI50 (SK-MEL-5): > 50 µM (inactive)
- GI50 (UACC-257): > 50 µM (inactive)
- GI50 (HOP-62): > 50 µM (inactive)
- GI50 (T47D): 0.92 µM (active)
- GI50 (MOLT-4): > 50 µM (inactive)
- GI50 (MDA-MB-435): > 50 µM (inactive)
- GI50 (NCI-H226): > 50 µM (inactive)
- GI50 (M14): > 50 µM (inactive)
- GI50 (HT-29): > 50 µM (inactive)
- GI50 (COLO 205): > 50 µM (inactive)
- GI50 (OVCAR-4): > 50 µM (inactive)
- GI50 (MDA-N): > 50 µM (inactive)
